Consider eight compounds from patent US9249125B2, “Pyrazole derivatives as p38 MAP inhibitors” (RESPIVERT LIMITED, priority 2012, dated 2016).

One data set relates to d-U937 cells. In words: Cell viability: MTT assay. Type of data set: cell-based, human. The following applies: 1 μg/mL. In outline:
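Differentiated U937 cells were exposed to compound at 1 or 10 μg/mL either 4 h in 5% FCS RPMI1640 or 24 h in 10% FCS RPMI1640, then given MTT for 1 h, DMSO-solubilised and read at 550 nm. Percent viability loss versus 0.5% DMSO vehicle; apparent gains appear negative.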
Background: Tetrazolium dyes change colour on reduction, which living cells bring about.

For a further data set, the target named is cSrc (Homo sapiens (Human), UniProt P12931). Briefly: c-Src enzyme inhibition (FRET, Z-LYTE). Type of data set: biochemical. The method, boiled down: (§1)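 Z-LYTE FRET kinase assay: enzyme (3000 or 2000 ng/mL stock, respectively) preincubated 2 h at RT with compound (4–0.004 μg/mL stocks), then FRET peptide plus ATP (800 μM stock for c-Src, 60 μM for Syk) added for 1 h. Protease development 1 h; phosphorylation from coumarin/fluorescein emission ratio.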

Data set [1] concerns Poly I:C-induced ICAM-1 expression in BEAS2B cells. Briefly: Poly I:C-induced ICAM-1 expression in BEAS2B cells. Type of data set: cell-based. The following applies: Homo sapiens, BEAS-2B, read-out: Poly IC induced ICAM1 in BEAS2B IC50. The method, boiled down: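 BEAS2B human bronchial epithelial cells pre-incubated with compound for 2 hr, then transfected with 1 μg/mL poly I:C plus Oligofectamine. At 18 hr, surface ICAM-1 measured by cell-based ELISA (HRP, OD450–655). Signal corrected for cell number by crystal violet OD595.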

For another data set, the target named is Syk (Homo sapiens (Human), UniProt P43405). Briefly: Syk enzyme inhibition (FRET, Z-LYTE). Type of data set: biochemical. The method, boiled down:
as §1

The next data set has as its target p38 MAPKα (Homo sapiens (Human), UniProt Q16539). Briefly: p38 MAPKα enzyme inhibition (FRET, Z-LYTE). Type of data set: biochemical.
The subject of data set [2] is LPS-induced TNFα release in d-U937 cells. In words: LPS-induced TNFα release in d-U937 cells. Type of data set: cell-based. The following applies: Homo sapiens, dU937, relative to 10 μg/mL BIRB796, read-out: LPS Induced Release of Cytokine in d-937 Cells TNFα REC50. In outline: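 Human monocytic U937 cells were differentiated to macrophage-type cells with PMA (100 ng/mL) for 48 to 72 hr, pre-treated with test compound for 2 hr, then stimulated 4 hr with E. coli O111:B4 LPS (0.1 μg/mL). Supernatant TNFα and IL-8 were measured by sandwich ELISA; REC50 came from concentration-response curves.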

Another data set addresses GSK3α (Homo sapiens (Human), UniProt P49840). In words: GSK 3α enzyme inhibition (FRET, Z-LYTE). Type of data set: biochemical. In outline:
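GSK3α (500 ng/mL stock) was preincubated 2 hr at RT with compound (4 to 0.004 μg/mL stocks), then FRET peptide (8 μM stock) and ATP (40 μM stock) added for 1 hr. Protease development for 1 hr cleaved unphosphorylated peptide; coumarin/fluorescein emission ratio reported phosphorylation.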

In data set [3] the test system is LPS-induced IL-8 release in d-U937 cells. In words: LPS-induced IL-8 release in d-U937 cells. The following applies: Homo sapiens, dU937, read-out: LPS Induced Release of Cytokine in d-937 Cells IL-8 IC50. Type of data set: cell-based. In outline:
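PMA-differentiated (100 ng/mL, 48–72 hr) U937 cells pre-incubated with compound 2 hr, then stimulated with LPS (0.1 μg/mL, E. coli O111:B4) for 4 hr. Supernatant TNFα and IL-8 measured by sandwich ELISA; inhibition versus vehicle control, REC50 from concentration-response curve.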

A value given as a limit tells only on which side of the number the result lay.

Chain of cSrc (P12931 whole entry, looked up): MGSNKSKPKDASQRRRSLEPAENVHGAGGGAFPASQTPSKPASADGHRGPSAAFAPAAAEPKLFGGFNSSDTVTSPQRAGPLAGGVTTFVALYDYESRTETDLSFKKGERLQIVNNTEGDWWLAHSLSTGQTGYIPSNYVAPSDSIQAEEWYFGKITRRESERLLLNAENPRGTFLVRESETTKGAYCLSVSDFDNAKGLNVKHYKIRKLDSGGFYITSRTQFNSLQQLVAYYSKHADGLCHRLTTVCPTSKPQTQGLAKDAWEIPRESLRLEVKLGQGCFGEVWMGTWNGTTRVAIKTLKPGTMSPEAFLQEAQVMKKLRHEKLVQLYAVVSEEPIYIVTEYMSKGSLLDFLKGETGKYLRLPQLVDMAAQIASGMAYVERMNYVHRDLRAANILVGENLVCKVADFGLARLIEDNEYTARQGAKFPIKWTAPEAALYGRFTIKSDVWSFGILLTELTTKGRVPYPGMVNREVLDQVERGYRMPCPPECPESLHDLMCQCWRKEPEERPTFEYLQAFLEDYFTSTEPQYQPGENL
Chain of p38 MAPKα (Q16539 whole entry): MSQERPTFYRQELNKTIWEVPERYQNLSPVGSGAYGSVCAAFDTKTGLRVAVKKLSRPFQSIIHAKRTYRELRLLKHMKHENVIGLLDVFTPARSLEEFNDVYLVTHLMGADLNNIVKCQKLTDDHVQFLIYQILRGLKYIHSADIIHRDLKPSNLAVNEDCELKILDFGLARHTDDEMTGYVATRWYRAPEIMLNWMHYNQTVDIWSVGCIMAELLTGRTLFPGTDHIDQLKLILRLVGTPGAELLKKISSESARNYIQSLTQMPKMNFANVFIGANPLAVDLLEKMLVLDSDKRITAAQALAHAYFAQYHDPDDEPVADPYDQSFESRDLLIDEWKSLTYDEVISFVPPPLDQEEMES
Chain of GSK3α (P49840 whole entry): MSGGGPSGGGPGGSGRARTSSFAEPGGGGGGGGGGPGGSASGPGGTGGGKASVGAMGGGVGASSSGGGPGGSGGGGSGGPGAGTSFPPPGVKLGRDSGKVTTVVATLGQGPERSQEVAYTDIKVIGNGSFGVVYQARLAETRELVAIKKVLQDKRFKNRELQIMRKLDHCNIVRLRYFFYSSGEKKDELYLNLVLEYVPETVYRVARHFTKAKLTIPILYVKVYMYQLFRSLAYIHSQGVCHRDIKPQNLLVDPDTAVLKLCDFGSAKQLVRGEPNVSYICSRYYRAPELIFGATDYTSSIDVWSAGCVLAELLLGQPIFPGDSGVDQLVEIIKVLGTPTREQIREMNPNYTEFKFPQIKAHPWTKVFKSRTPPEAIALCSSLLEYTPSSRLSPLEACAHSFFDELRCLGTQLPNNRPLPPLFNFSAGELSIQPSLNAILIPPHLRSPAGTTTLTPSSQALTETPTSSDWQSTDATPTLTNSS

The IC50 is the point on the concentration scale where inhibition reaches its midpoint. For `Cc1ccc(-n2nc(C(C)(C)C)cc2NC(=O)Nc2ccc(Oc3ccnc(Nc4cccc5[nH]ccc45)n3)c3ccccc23)cc1` [Example 16], the “MTT Assay Cell viability at time point in d-U937 cells 4 h” value in the data set on d-U937 cells was “−ve (−ve and +ve indicate that the value is below and above respectively, the no significant effect threshold, defined as 30% inhibition at 1 μg/mL at the time point indicated.)”. The “MTT Assay Cell viability at time point in d-U937 cells 24 h” value with d-U937 cells is “−ve (−ve and +ve indicate that the value is below and above respectively, the no significant effect threshold, defined as 30% inhibition at 1 μg/mL at the time point indicated.)”. For the same compound, the IC50 is 22 nM against cSrc; 8.9 nM in data set [1]; 65 nM on Syk; 101 nM against p38 MAPKα; more than 16100 nM on GSK3α; 2.6 nM in data set [3]. In addition, the EC50 in data set [2] was found to be 2 nM.
On to `CC(C)(C)c1cc(NC(=O)Nc2ccc(Oc3ccnc(Nc4ccc5[nH]ncc5c4)n3)c3ccccc23)n(-c2ccc(O)cc2)n1` [Example 7, 1-(4-((2-((1H-Indazol-5-yl)amino)pyrimidin-4-yl)oxy)naphthalen-1-yl)-3-(3-(tert-butyl)-1-(4-hydroxyphenyl)-1H-pyrazol-5-yl)urea], for which the “MTT Assay Cell viability at time point in d-U937 cells 4 h” value in the data set with d-U937 cells was “−ve (−ve and +ve indicate that the value is below and above respectively, the no significant effect threshold, defined as 30% inhibition at 1 μg/mL at the time point indicated.)”. The “MTT Assay Cell viability at time point in d-U937 cells 24 h” value in the data set with d-U937 cells was “−ve (−ve and +ve indicate that the value is below and above respectively, the no significant effect threshold, defined as 30% inhibition at 1 μg/mL at the time point indicated.)”. In addition, the IC50 at cSrc was 10 nM; in data set [1] it was 16.1 nM; at Syk it was 24 nM; on p38 MAPKα, 80 nM; against GSK3α, more than 1600 nM; in data set [3] it was 17.2 nM. Besides, in data set [2], the EC50 stood at 6.2 nM.
`CC(C)(C)c1cc(NC(=O)Nc2ccc(Oc3ccnc(Nc4ccc5[nH]ccc5c4)n3)c3ccccc23)n(-c2cccc(CN3CCCC3=O)c2)n1` [Example 48, 1-(4-((2-((1H-indol-5-yl)amino)pyrimidin-4-yl)oxy)naphthalen-1-yl)-3-(3-(tert-butyl)-1-(3-((2-oxopyrrolidin-1-yl)methyl)phenyl)-1H-pyrazol-5-yl)urea]: in the data set on d-U937 cells, the “MTT Assay Cell viability at time point in d-U937 cells 4 h” value is “−ve (−ve and +ve indicate that the value is below and above respectively, the no significant effect threshold, defined as 30% inhibition at 1 μg/mL at the time point indicated.)”. Besides, the “MTT Assay Cell viability at time point in d-U937 cells 24 h” value in the data set on d-U937 cells is “−ve (−ve and +ve indicate that the value is below and above respectively, the no significant effect threshold, defined as 30% inhibition at 1 μg/mL at the time point indicated.)”. In addition, the IC50 against cSrc is 4 nM; in data set [1] it was 6.9 nM; on Syk, 18 nM; at p38 MAPKα, 70 nM; against GSK3α, more than 1420 nM; in data set [3], 16.6 nM. Also, in data set [2], the EC50 was 5.3 nM.
In the case of `COc1ccc(-n2nc(C(C)(C)C)cc2NC(=O)Nc2ccc(Oc3ccnc(Nc4ccc5[nH]ccc5c4)n3)c3ccccc23)cc1` [Example 38, 1-(4-((2-((1H-indol-5-yl)amino)pyrimidin-4-yl)oxy)naphthalen-1-yl)-3-(3-(tert-butyl)-1-(4-methoxyphenyl)-1H-pyrazol-5-yl)urea], the “MTT Assay Cell viability at time point in d-U937 cells 4 h” value with d-U937 cells is “−ve (−ve and +ve indicate that the value is below and above respectively, the no significant effect threshold, defined as 30% inhibition at 1 μg/mL at the time point indicated.)”. In addition, the “MTT Assay Cell viability at time point in d-U937 cells 24 h” value with d-U937 cells was “−ve (−ve and +ve indicate that the value is below and above respectively, the no significant effect threshold, defined as 30% inhibition at 1 μg/mL at the time point indicated.)”. The IC50 was 10 nM against cSrc; 2.5 nM in data set [1]; 26 nM against Syk; 184 nM at p38 MAPKα; more than 1560 nM against GSK3α; 1.1 nM in data set [3]. Also, in data set [2], the EC50 stood at 1.8 nM.
Take `CC(C)(C)c1cc(NC(=O)Nc2ccc(Oc3ccnc(Nc4ccc5[nH]ncc5c4)n3)c3ccccc23)n(-c2ccc(=O)n(CCO)c2)n1` [Example 86, 1-(4-((2-((1H-indazol-5-yl)amino)pyrimidin-4-yl)oxy)naphthalen-1-yl)-3-(3-(tert-butyl)-1-(1-(2-hydroxyethyl)-6-oxo-1,6-dihydropyridin-3-yl)-1H-pyrazol-5-yl)urea]: the “MTT Assay Cell viability at time point in d-U937 cells 4 h” value in the data set on d-U937 cells was “−ve (−ve and +ve indicate that the value is below and above respectively, the no significant effect threshold, defined as 30% inhibition at 1 μg/mL at the time point indicated.)”. The “MTT Assay Cell viability at time point in d-U937 cells 24 h” value with d-U937 cells is “−ve (−ve and +ve indicate that the value is below and above respectively, the no significant effect threshold, defined as 30% inhibition at 1 μg/mL at the time point indicated.)”. In addition, the IC50 against cSrc was less than 1 nM; in data set [1] it was 8.3 nM; on Syk, 16 nM; at p38 MAPKα it was 7 nM; against GSK3α, 827 nM; in data set [3], 4.1 nM. Moreover, in data set [2], the EC50 is 2.2 nM.
As to `CC(C)(C)c1cc(NC(=O)Nc2ccc(Oc3ccnc(Nc4ccc5c(c4)OCO5)n3)c3ccccc23)n(-c2ccc(OCCN3CCOCC3)cc2)n1` [Example 65, 1-(4-((2-(benzo[d][1,3]dioxol-5-ylamino)pyrimidin-4-yl)oxy)naphthalen-1-yl)-3-(3-(tert-butyl)-1-(4-(2-morpholinoethoxy)phenyl)-1H-pyrazol-5-yl)urea], the “MTT Assay Cell viability at time point in d-U937 cells 4 h” value with d-U937 cells was “−ve (−ve and +ve indicate that the value is below and above respectively, the no significant effect threshold, defined as 30% inhibition at 1 μg/mL at the time point indicated.)”. Also, the “MTT Assay Cell viability at time point in d-U937 cells 24 h” value in the data set on d-U937 cells is “−ve (−ve and +ve indicate that the value is below and above respectively, the no significant effect threshold, defined as 30% inhibition at 1 μg/mL at the time point indicated.)”. Also, the IC50 against cSrc turned out to be 23 nM; in data set [1], 6.7 nM; against Syk, 141 nM; against p38 MAPKα, 239 nM; against GSK3α, 2840 nM; in data set [3], 20.9 nM. Further, the EC50 in data set [2] turned out to be 5.3 nM.
Regarding `CC(C)(C)c1cc(NC(=O)Nc2ccc(Oc3ccnc(Nc4ccc5c(cnn5CCN5CCOCC5)c4)n3)c3ccccc23)n(-c2ccc(OCCN3CCOCC3)cc2)n1` [Example 74, 1-(3-(tert-butyl)-1-(4-(2-morpholinoethoxy)phenyl)-1H-pyrazol-5-yl)-3-(4-((2-((1-(2-morpholinoethyl)-1H-indazol-5-yl)amino)pyrimidin-4-yl)oxy)naphthalen-1-yl)urea], the “MTT Assay Cell viability at time point in d-U937 cells 4 h” value in the data set on d-U937 cells was “−ve (−ve and +ve indicate that the value is below and above respectively, the no significant effect threshold, defined as 30% inhibition at 1 μg/mL at the time point indicated.)”. In addition, the “MTT Assay Cell viability at time point in d-U937 cells 24 h” value with d-U937 cells is “−ve (−ve and +ve indicate that the value is below and above respectively, the no significant effect threshold, defined as 30% inhibition at 1 μg/mL at the time point indicated.)”. The half-inhibitory concentration (IC50) at cSrc was less than 1 nM; in data set [1], 2.7 nM; at Syk, 1 nM; against p38 MAPKα, 27 nM; on GSK3α, 597 nM; in data set [3], 192 nM. Moreover, in data set [2], the EC50 was 3.6 nM.
As for `CC(C)(C)c1cc(NC(=O)Nc2ccc(Oc3ccnc(Nc4ccc5[nH]nnc5c4)n3)c3ccccc23)n(-c2ccc(OCCN3CCOCC3)cc2)n1` [Example 81, 1-(4-((2-((1H-benzo[d][1,2,3]triazol-5-yl)amino)pyrimidin-4-yl)oxy)naphthalen-1-yl)-3-(3-(tert-butyl)-1-(4-(2-morpholinoethoxy)phenyl)-1H-pyrazol-5-yl)urea], the “MTT Assay Cell viability at time point in d-U937 cells 4 h” value in the data set on d-U937 cells was “−ve (−ve and +ve indicate that the value is below and above respectively, the no significant effect threshold, defined as 30% inhibition at 1 μg/mL at the time point indicated.)”. In the data set on d-U937 cells, the “MTT Assay Cell viability at time point in d-U937 cells 24 h” value was “−ve (−ve and +ve indicate that the value is below and above respectively, the no significant effect threshold, defined as 30% inhibition at 1 μg/mL at the time point indicated.)”. The IC50 on cSrc amounted to 5 nM; in data set [1] it was 10 nM; on Syk, 14 nM; against p38 MAPKα, 66 nM; at GSK3α, 641 nM; in data set [3] it was 1.6 nM. Besides, the EC50 in data set [2] amounted to 1.4 nM.
